PMC12655637, “Design, Synthesis, and Mechanistic Study of Novel Ciprofloxacin/Thiazole Chalcone Hybrids as Potential Anticancer Agents” (Pharmaceuticals, 2025)

Tests used:
Test in all cases: NCI-60 screening, one-dose (10 µM) and five-dose, SRB
[1] = tested on: SN12C; format: cell-based, human
[2] = tested on: PC-3; format: cell-based, human
[3] = tested on: HT29; format: cell-based, human
[4] = tested on: KM12; format: cell-based, human; settings: five-dose, KM12
[5] = tested on: NCI-H23; format: cell-based, human
[6] = tested on: HL-60(TB); format: cell-based, human; settings: HL-60(TB)
[7] = tested on: TK-10; format: cell-based, human
[8] = tested on: M14; format: cell-based, human
[9] = tested on: LOX IMVI; format: cell-based, human
[10] = tested on: OVCAR-5; format: cell-based, human; settings: five-dose, OVCAR-5
[11] = tested on: NCI-H460; format: cell-based, human
[12] = tested on: NCI-H522; format: cell-based, human
[13] = tested on: HCC-2998; format: cell-based, human
[14] = tested on: DU-145; format: cell-based, human
[15] = tested on: CAKI-1; format: cell-based
[16] = tested on: SR; format: cell-based, human; settings: five-dose
[17] = tested on: EKVX; format: cell-based, human; settings: Homo sapiens, 10 μM, Non-Small-Cell Lung Cancer, read-out: Growth percentage
[18] = tested on: SK-MEL-5; format: cell-based, human
[19] = tested on: T-47D; format: cell-based, human; settings: five-dose
[20] = tested on: MDA-MB-468; format: cell-based, human; settings: five-dose, MDA-MB-468
Excerpt: Control cells Test cells FLD
available usually at NCI library.
An aliquot of frozen drug concentrate is […]

[21] = tested on: SK-OV-3; format: cell-based, human
[22] = tested on: SW-620; format: cell-based, human
[23] = tested on: HS 578T; format: cell-based, human
[24] = tested on: MDA-MB-435; format: cell-based; settings: MDA-MB-435
[25] = tested on: BT-549; format: cell-based
[26] = tested on: A498; format: cell-based
[27] = tested on: ACHN; format: cell-based, human
[28] = tested on: SNB-19; format: cell-based
[29] = tested on: MDA-MB231/ATCC; format: cell-based
[30] = tested on: HOP-62; format: cell-based, human; settings: five-dose, HOP-62
[31] = tested on: OVCAR-3; format: cell-based
[32] = Homo sapiens, 10 μM, Renal Cancer, read-out: Growth percentage
[33] = Homo sapiens, five-dose, read-out: LC50 (the source's name)
[34] = Homo sapiens, HT-29, five-dose, HT29
[35] = Homo sapiens, five-dose, NCI-H23
[36] = Homo sapiens, read-out: LC50 (the source's name)
[37] = Homo sapiens, five-dose, NCI-H460
[38] = Homo sapiens, five-dose, NCI-H522
[39] = Homo sapiens, five-dose, HCC-2998
[40] = Homo sapiens, five-dose, DU-145
[41] = Homo sapiens, five-dose, CAKI-1
[42] = Homo sapiens, five-dose, SK-MEL-5
[43] = Homo sapiens, five-dose, SW-620
[44] = Homo sapiens, five-dose, BT-549
[45] = Homo sapiens, five-dose, SNB-19
[46] = Homo sapiens, five-dose, OVCAR-3

SMILES: Cc1nc(SCC(=O)N2CCN(c3cc4c(cc3F)c(=O)c(C(=O)O)cn4C3CC3)CC2)sc1C(=O)/C=C/c1cccc(Cl)c1 [Compound 4b, (E)-7-(4-(2-((5-(3-(3-Chlorophenyl)acryloyl)-4-methylthiazol-2-yl)thio)acetyl)piperazin-1-yl)-1-cyclopropyl-6-fluoro-4-oxo-1,4-dihydroquinoline-3-carboxylic Acid]
- activity at 10 µM [1, 32]: 51%
- GI50 ([1]; Homo sapiens, five-dose): 44.7 µM
- IC50 ([1]; Homo sapiens, five-dose): > 100 µM
- CC50 [1, 33]: > 100 µM
- TGI ([1]; five-dose): 100.0 µM
- activity at 10 µM ([2]; Homo sapiens, 10 μM, PC-3, Prostate Cancer, read-out: Growth percentage): 74.1%
- GI50 ([2]; Homo sapiens, five-dose, PC-3): 55 µM
- IC50 ([2]; Homo sapiens, five-dose, PC-3): > 100 µM
- CC50 ([2]; Homo sapiens, five-dose, PC-3, read-out: LC50 (the source's name)): > 100 µM
- TGI ([2]; five-dose, PC-3): 100.0 µM
- activity at 10 µM ([3]; Homo sapiens, HT-29, 10 μM, HT29, Colon Cancer, read-out: Growth percentage): 24.4%
- GI50 [3, 34]: > 100 µM
- IC50 [3, 34]: > 100 µM
- CC50 ([3]; Homo sapiens, HT-29, five-dose, HT29, read-out: LC50 (the source's name)): > 100 µM
- TGI ([3]; five-dose, HT29): 100.0 µM
- GI50 ([4]; Homo sapiens): 0.9 µM
- IC50 ([4]; Homo sapiens): 1.3 µM
- LC50 ([4]; Homo sapiens): 9.3 µM
- TGI [4]: 3.0 µM
- activity at 10 µM ([5]; Homo sapiens, 10 μM, NCI-H23, Non-Small-Cell Lung Cancer, read-out: Growth percentage): 54%
- GI50 [5, 35]: > 100 µM
- IC50 [5, 35]: > 100 µM
- LC50 (50% lethal concentration) [5, 35]: > 100 µM
- TGI ([5]; five-dose, NCI-H23): 100.0 µM
- IC50 ([6]; Homo sapiens, HL-60, five-dose): 3.7 µM
- GI50 ([6]; Homo sapiens, five-dose): 2.6 µM
- CC50 [6, 33]: 34.7 µM
- TGI ([6]; five-dose): 11.2 µM
- activity at 10 µM ([7]; Homo sapiens, 10 μM, TK-10, Renal Cancer, read-out: Growth percentage): 108%
- GI50 ([7]; Homo sapiens, five-dose, TK-10): > 100 µM
- IC50 ([7]; Homo sapiens, five-dose, TK-10): > 100 µM
- CC50 ([7]; Homo sapiens, five-dose, TK-10, read-out: LC50 (the source's name)): > 100 µM
- TGI ([7]; five-dose, TK-10): 100.0 µM
- activity at 10 µM ([8]; Homo sapiens, 10 μM, M14, Melanoma, read-out: Growth percentage): 48.7%
- GI50 ([8]; Homo sapiens, five-dose, M14): 27.5 µM
- IC50 ([8]; Homo sapiens, five-dose, M14): 69.2 µM
- CC50 ([8]; Homo sapiens, five-dose, M14, read-out: LC50 (the source's name)): > 100 µM
- TGI ([8]; five-dose, M14): 100.0 µM
- activity at 10 µM ([9]; Homo sapiens, 10 μM, Melanoma, read-out: Growth percentage): 36.9%
- GI50 ([9]; Homo sapiens, five-dose): 2.4 µM
- IC50 ([9]; Homo sapiens, five-dose): 3 µM
- CC50 [9, 33]: > 100 µM
- TGI ([9]; five-dose): 100.0 µM
- GI50 ([10]; Homo sapiens): > 100 µM
- IC50 ([10]; Homo sapiens): > 100 µM
- CC50 [10, 36]: > 100 µM
- TGI [10]: 100.0 µM
- activity at 10 µM ([11]; Homo sapiens, NCI-H460, 10 μM, NCI-H460, Non-Small-Cell Lung Cancer, read-out: Growth percentage): 76.7%
- GI50 [11, 37]: 58.9 µM
- IC50 [11, 37]: 70.8 µM
- CC50 ([11]; Homo sapiens, five-dose, NCI-H460, read-out: LC50 (the source's name)): > 100 µM
- TGI ([11]; five-dose, NCI-H460): 100.0 µM
- activity at 10 µM ([12]; Homo sapiens, 10 μM, NCI-H522, Non-Small-Cell Lung Cancer, read-out: Growth percentage): 98.5%
- GI50 [12, 38]: > 100 µM
- IC50 [12, 38]: > 100 µM
- LC50 (concentration killing 50% of cells) [12, 38]: > 100 µM
- TGI ([12]; five-dose, NCI-H522): 100.0 µM
- activity at 10 µM ([13]; Homo sapiens, 10 μM, HCC-2998, Colon Cancer, read-out: Growth percentage): 25.6%
- GI50 [13, 39]: 1.2 µM
- IC50 [13, 39]: 2.2 µM
- TGI ([13]; five-dose, HCC-2998): 2.9 µM
- activity at 10 µM ([14]; Homo sapiens, 10 μM, DU-145, Prostate Cancer, read-out: Growth percentage): 94.6%
- GI50 [14, 40]: > 100 µM
- IC50 [14, 40]: > 100 µM
- CC50 ([14]; Homo sapiens, five-dose, DU-145, read-out: LC50 (the source's name)): > 100 µM
- TGI ([14]; five-dose, DU-145): 100.0 µM
- activity at 10 µM ([15]; Homo sapiens, 10 μM, CAKI-1, Renal Cancer, read-out: Growth percentage): 102%
- GI50 [15, 41]: 87.1 µM
- IC50 [15, 41]: > 100 µM
- CC50 ([15]; Homo sapiens, five-dose, CAKI-1, read-out: LC50 (the source's name)): > 100 µM
- TGI ([15]; five-dose, CAKI-1): 100.0 µM
- GI50 ([16]; Homo sapiens): 1.8 µM
- IC50 ([16]; Homo sapiens): 3.2 µM
- CC50 [16, 36]: 9.1 µM
- TGI [16]: 4.1 µM
- activity at 10 µM [17]: 83.9%
- activity at 10 µM ([18]; Homo sapiens, 10 μM, SK-MEL-5, Melanoma, read-out: Growth percentage): 50.3%
- GI50 [18, 42]: 21.9 µM
- IC50 [18, 42]: > 100 µM
- CC50 ([18]; Homo sapiens, five-dose, SK-MEL-5, read-out: LC50 (the source's name)): > 100 µM
- TGI ([18]; five-dose, SK-MEL-5): 100.0 µM
- GI50 ([19]; Homo sapiens, T47D): > 100 µM
- IC50 ([19]; Homo sapiens, T47D): > 100 µM
- CC50 ([19]; Homo sapiens, T47D, read-out: LC50 (the source's name)): > 100 µM
- TGI [19]: 100.0 µM
- GI50 ([20]; Homo sapiens): 3.9 µM
- IC50 ([20]; Homo sapiens): > 100 µM
- CC50 [20, 36]: > 100 µM
- TGI [20]: 15.5 µM
- activity at 10 µM ([21]; Homo sapiens, 10 μM, SK-OV-3, Ovarian Cancer, read-out: Growth percentage): 46.3%
- IC50 ([21]; Homo sapiens, five-dose, SK-OV-3): > 100 µM
- CC50 ([21]; Homo sapiens, five-dose, SK-OV-3, read-out: LC50 (the source's name)): > 100 µM
- TGI ([21]; five-dose, SK-OV-3): 100.0 µM
- activity at 10 µM ([22]; Homo sapiens, 10 μM, SW-620, Colon Cancer, read-out: Growth percentage): 53.3%
- GI50 [22, 43]: 10.5 µM
- IC50 [22, 43]: 15.1 µM
- CC50 ([22]; Homo sapiens, five-dose, SW-620, read-out: LC50 (the source's name)): > 100 µM
- TGI ([22]; five-dose, SW-620): 40.7 µM
- activity at 10 µM ([23]; Homo sapiens, 10 μM, Breast Cancer, read-out: Growth percentage): 61.5%
- GI50 ([23]; Homo sapiens, five-dose): 18.6 µM
- IC50 ([23]; Homo sapiens, five-dose): 70.8 µM
- CC50 [23, 33]: > 100 µM
- TGI ([23]; five-dose): 75.9 µM
- GI50 ([24]; Homo sapiens): 3.5 µM
- IC50 ([24]; Homo sapiens): 7.4 µM
- CC50 [24, 33]: > 100 µM
- TGI ([24]; five-dose): 52.5 µM
- activity at 10 µM ([25]; Homo sapiens, 10 μM, BT-549, Breast Cancer, read-out: Growth percentage): -62.2%
- GI50 [25, 44]: 15.8 µM
- IC50 [25, 44]: 35.5 µM
- CC50 ([25]; Homo sapiens, five-dose, BT-549, read-out: LC50 (the source's name)): 85.1 µM
- TGI ([25]; five-dose, BT-549): 36.3 µM
- activity at 10 µM ([26]; Homo sapiens, A498, 10 μM, A498, Renal Cancer, read-out: Growth percentage): 36%
- GI50 ([26]; Homo sapiens, five-dose, A498): > 100 µM
- IC50 ([26]; Homo sapiens, five-dose, A498): > 100 µM
- CC50 ([26]; Homo sapiens, five-dose, A498, read-out: LC50 (the source's name)): > 100 µM
- TGI ([26]; five-dose, A498): 100.0 µM
- activity at 10 µM [27, 32]: 99.1%
- GI50 ([27]; Homo sapiens, five-dose): > 100 µM
- IC50 ([27]; Homo sapiens, five-dose): > 100 µM
- CC50 [27, 33]: > 100 µM
- TGI ([27]; five-dose): 100.0 µM
- activity at 10 µM ([28]; Homo sapiens, 10 μM, SNB-19, CNS Cancer, read-out: Growth percentage): 54.7%
- GI50 [28, 45]: 22.4 µM
- IC50 [28, 45]: 49 µM
- CC50 ([28]; Homo sapiens, five-dose, SNB-19, read-out: LC50 (the source's name)): > 100 µM
- TGI ([28]; five-dose, SNB-19): 100.0 µM
- GI50 ([29]; Homo sapiens, MDA-MB-231): > 100 µM
- IC50 ([29]; Homo sapiens, MDA-MB-231): > 100 µM
- CC50 ([29]; Homo sapiens, five-dose, MDA-MB-231/ATCC, read-out: LC50 (the source's name)): > 100 µM
- TGI ([29]; five-dose, MDA-MB-231/ATCC): 100.0 µM
- GI50 ([30]; Homo sapiens): 4.3 µM
- IC50 ([30]; Homo sapiens): > 100 µM
- CC50 [30, 36]: > 100 µM
- TGI [30]: 100.0 µM
- activity at 10 µM ([31]; Homo sapiens, 10 μM, OVCAR-3, Ovarian Cancer, read-out: Growth percentage): 13.9%
- GI50 [31, 46]: 22.9 µM
- IC50 [31, 46]: 41.7 µM
- CC50 ([31]; Homo sapiens, five-dose, OVCAR-3, read-out: LC50 (the source's name)): > 100 µM
- TGI ([31]; five-dose, OVCAR-3): 52.5 µM
